# Measured values as given in PMC3573112, “Compatibility in the Ustilago maydis–Maize Interaction Requires Inhibition of Host Cysteine Proteases by the Fungal Effector Pit2” (PLoS Pathogens, 2013).
# Where a SMILES comes first, the peptide text is derived from it. The star is where a group is joined. AMC = Cc1cc(=O)oc2cc(N*)ccc12; Cbz = O=C(OCc1ccccc1)*
# Tests used:
# [1] = biological target: T1, CP2 (corn cysteine protease 2) (Zea mays, UniProt Q43705); experiment: fluorimetric protease assay with Z-Phe-Arg-AMC; assay type: biochemical; conditions: 10 min preincubation; 1 µM Z-Phe-Arg-AMC; pH 6.0; covalent
# T1 construct: gene see1
# T1 sequence (Q43705 143-360 limits assumed): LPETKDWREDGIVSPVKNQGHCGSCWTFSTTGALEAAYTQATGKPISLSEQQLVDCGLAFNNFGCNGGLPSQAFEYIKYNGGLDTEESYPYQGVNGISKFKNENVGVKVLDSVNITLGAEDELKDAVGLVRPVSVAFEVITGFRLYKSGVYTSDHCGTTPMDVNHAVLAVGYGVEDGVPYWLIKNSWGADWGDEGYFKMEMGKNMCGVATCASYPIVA
# CP1A = biological target: T2, CP1A (Zea mays, UniProt B6T669); experiment: fluorimetric protease assay (AMC release), apoplastic fluid; assay type: biochemical; conditions: 2 µM substrate; pH 6.0, room temperature; DTT
# T2 construct: transiently expressed in Nicotiana benthamiana (pGreenII 0029); apoplastic fluid, not purified
# XCP2 = biological target: T3, XCP2 (Zea mays, UniProt B6TIC7); experiment: as above; assay type: biochemical; conditions: 2 µM substrate; pH 6.0, room temperature; DTT
# T3 construct: transiently expressed in Nicotiana benthamiana (pGreenII 0029); apoplastic fluid, not purified
# [2] = biological target: T1, CP2 (corn cysteine protease 2); experiment: fluorimetric protease assay (AMC release, […] nm); assay type: biochemical; conditions: 1 µM substrate; pH 6.0
# CP2 = biological target: T4, CP2 (Zea mays, UniProt Q43705); experiment: fluorimetric protease assay (AMC release), apoplastic fluid; assay type: biochemical; conditions: 2 µM substrate; pH 6.0, room temperature; DTT
# T4 construct: gene see1; transiently expressed in Nicotiana benthamiana (pGreenII 0029); apoplastic fluid, not purified
# T4 sequence (Q43705 143-360): T1 sequence (Q43705 143-360 limits assumed)
# CathepsinBIII (CatB) = biological target: T5, CathepsinBIII (CatB) (Zea mays, UniProt B6TLR9); experiment: as above; assay type: biochemical; conditions: 2 µM substrate; pH 6.0, room temperature; DTT
# T5 construct: transiently expressed in Nicotiana benthamiana (pGreenII 0029); apoplastic fluid, not purified
# T5 sequence (B6TLR9 93-347): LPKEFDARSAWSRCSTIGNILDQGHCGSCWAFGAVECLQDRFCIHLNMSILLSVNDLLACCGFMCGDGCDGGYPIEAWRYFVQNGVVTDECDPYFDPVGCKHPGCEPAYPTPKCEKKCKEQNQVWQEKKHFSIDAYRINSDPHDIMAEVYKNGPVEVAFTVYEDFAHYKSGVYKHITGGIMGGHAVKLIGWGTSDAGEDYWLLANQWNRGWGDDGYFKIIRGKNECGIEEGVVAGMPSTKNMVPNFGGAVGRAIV
# [3] = biological target: CP2 (corn cysteine protease 2) without signal peptide and prodomain, Gal4 activation domain fusion (pGADT7-CP2) (maize) (UniProt Q10717)
# T2 sequence (B6T669 130-463): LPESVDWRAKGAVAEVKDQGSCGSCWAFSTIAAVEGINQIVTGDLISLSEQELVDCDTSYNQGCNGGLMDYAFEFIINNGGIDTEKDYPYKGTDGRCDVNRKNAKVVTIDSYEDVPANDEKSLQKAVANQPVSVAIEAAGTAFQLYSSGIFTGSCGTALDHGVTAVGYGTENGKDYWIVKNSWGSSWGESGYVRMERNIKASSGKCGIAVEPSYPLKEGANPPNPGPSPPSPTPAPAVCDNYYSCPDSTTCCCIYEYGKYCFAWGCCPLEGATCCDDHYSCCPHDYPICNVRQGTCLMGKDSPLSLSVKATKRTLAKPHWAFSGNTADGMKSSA
# T3 sequence (B6TIC7 158-377): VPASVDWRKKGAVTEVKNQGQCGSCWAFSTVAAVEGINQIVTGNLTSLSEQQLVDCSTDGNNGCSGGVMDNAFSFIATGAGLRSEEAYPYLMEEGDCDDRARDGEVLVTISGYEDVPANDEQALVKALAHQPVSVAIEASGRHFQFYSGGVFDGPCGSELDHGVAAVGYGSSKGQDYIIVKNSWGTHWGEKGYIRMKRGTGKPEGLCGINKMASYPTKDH
compound,measurement,setting,value
CC(C)C[C@H](NC(=O)[C@H]1O[C@@H]1C(=O)O)C(=O)NCCCCN=C(N)N [E-64],inhibition at 2.5 μM,[1],inhibited by addition of the specific small molecule cysteine protease inhibitor E-64
Cc1cc(=O)oc2cc(NC(=O)[C@H](CCCNC(=N)N)NC(=O)[C@H](Cc3ccccc3)NC(=O)OCc3ccccc3)ccc12 [Z-Phe-Arg-7-amido-4-methylcoumarin] (Cbz-Phe-Arg-{AMC}),"fluorimetric protease assay (AMC release), apoplastic fluid",CP1A,Protease activity was determined using substrate Z-Phe-Arg-AMC
same,"fluorimetric protease assay (AMC release), apoplastic fluid",XCP2,Protease activity was determined using substrate Z-Phe-Arg-AMC
same,"fluorimetric protease assay (AMC release, 460 nm)",[2],Protease-activity was determined using the fluorescent substrate Z-Phe-Arg-AMC
same,"fluorimetric protease assay (AMC release), apoplastic fluid",CP2,Protease activity was determined using substrate Z-Phe-Arg-AMC
same,"fluorimetric protease assay (AMC release), apoplastic fluid",CathepsinBIII (CatB),Protease activity was determined using substrate Z-Phe-Arg-AMC
"GST-Pit2 (Pit2 without signal peptide with N-terminal GST-tag, pRSET-GST-PP-Pit2) (natural protein)","inhibition of the activity on Z-Phe-Arg-AMC of recombinant His-tagged CP2 (E. coli, refolded, activated by pH shift and pepsin) by 10 µM recombinant Pit2 (GST tag removed)",[3],85 % inhibition
